Earlier results, collected in US6989139B2, “Matrix metalloproteinase inhibitors” (Bristol-Myers Squibb Pharma Company, priority 2000, dated 2006).

Tests used:
[1] = tested on: MMP's; details: literature statement
[2] = tested on: MMP-2, MMP-9 vs MMP-1, MMP-3; details: Lovejoy et al 1999

Row | Compound | MMP inhibitory activity [1] | selectivity for MMP-2 and MMP-9 over MMP-1 [2]
1 | 2-[(2-{[(N-{[4-({[7-(N-hydroxycarbamoyl)(3S,6R,7S)-4-aza-6-(2-methylpropyl)-11-oxa-5-oxobicyclo[10.2.2)hexadeca-1(15),12(16),13-trien-3-yl]-carbonylamino}methyl)phenyl]methyl}carbamoyl)methyl](carboxymeth yl)amino}ethyl){2-[bis(carboxymethyl)amino]ethyl}amino]acetic Acid [Example 8] | potent inhibition | 
2 | 2-[2-({5-[N-(5-(N-hydroxycarbamoyl)(5R)-5-{3-[4-(3,4-dimethoxyphenoxy)phenyl]-3-methyl-2-oxopyrrolidinyl}pentyl)carbamoyl](2-pyridyl)}amino)(1Z)-2-azavinyl]benzenesulfonic Acid [Example 15] | good activity | 
3 | O=C(NO)C1(CS(=O)(=O)c2ccc(Oc3ccc(Cl)cc3)cc2)CCOCC1 [Example 13] |  | selectivity for MMP-2 and MMP-9 over MMP-1
4 | CC(C)C[C@H]1C(=O)N[C@H](C(=O)NCc2ccc(CNC(=O)C(CS(=O)(=O)O)NC(=O)CN3CCN(CC(=O)O)CCN(CC(=O)O)CCN(CC(=O)O)CC3)cc2)Cc2ccc(cc2)OCCC[C@@H]1C(=O)NO (stereo partly drawn) [Example 6, 2-[7-({N-[1-(N-{[4-({[7-(N-hydroxycarbamoyl)(3S,6R,7S)-4-aza-6-(2-methylpropyl)-11-oxa-5-oxobicyclo[10.2.2]hexadeca-1(15),12(16),13-trien-3-yl]-carbonylamino}methyl)phenyl]methyl}carbamoyl)-2-sulfoethyl]carbamoyl}methyl)-1,4,7,10-tetraaza-4,10-bis(carboxymethyl)cyclododecyl]acetic Acid] | nanomolar activity | 
